{"source": "patent US20260094676A1", "about": "“METHOD AND APPARATUS FOR PREDICTING DRUG BIOAVAILABILITY” (LIVERPOOL JOHN MOORES UNIVERSITY, priority 2022, published 2026)", "key": {"[1]": {"conditions": "dogs, cited from earlier work"}, "[2]": {"conditions": "concomitant intake of kolanut with halofantrine; cited from earlier work"}, "[3]": {"conditions": "humans, cited from earlier work"}, "[4]": {"test": "Reversed phase TLC lipophilicity measurement on Leucaena oil device (LOD)", "conditions": "for ICHI (isocratic chromatographic hydrophobicity index): LOD R1 to R10, methanol in water mobile phase", "experimental": "Silica gel GF254 plates (5×10 cm) are successively developed by ascending development in the oil solution. Ten consecutive runs were carried out in each of the six tanks set up to prepare the Leucaena oil device (LOD).\nThe plates were air-dried at room temperature and the plates were developed in saturated development tanks containing 10 mL of the mobile phase. The plates were developed over a path of 7 cm and allowed to air-dry before visualization under UV light at 254 nm. The retardation factor (Rf) was then measured. The development was performed in duplicate.\nRm was computed by the equation: […]\nThe linear regression of Rm versus organic modifier fraction is governed by the Soczewinski Wachmeister equation: […]\nThe mobile phase used consisted of various concentrations of methanol in 0.1N HCl and Phosphate buffer pH 6.8.\n(§1) Data analysis was done as previously described, Rf was transformed to Rm and linear regression analysis implemented to determine the lipophilicity parameter, ICHI.\n(§2) Data analysis was performed as described earlier under data analysis in previous sections. Rf is transformed to Rm and linear regression of Rm versus methanol fraction produces linear regression parameters that provide the lipophilicity metric."}, "[5]": {"conditions": "cited from earlier work"}, "[6]": {"experimental": "The mobile phase used consisted of various concentrations of methanol in 0.1N HCl and phosphate buffer pH 6.8.\nas §1, §2"}, "[7]": {"conditions": "48 h"}, "[8]": {"conditions": "halofantrine administered postprandially"}}, "note": "Structures can show the parent of a compound that is named as a salt. Where two headings read alike, the source gives them in different places.", "data": [{"smiles": "CCCCNCCC(O)c1cc2c(Cl)cc(Cl)cc2c2cc(C(F)(F)F)ccc12", "note": "(stereo not drawn) [desbutylhalofantrine]", "values": [{"measurement": "decrease of proportional formation of desbutyl metabolite", "setting": "[1]; [8]", "result": 6.8, "unit": "fold"}, {"measurement": "Cmax, effect of concomitant kolanut", "setting": "[2]", "result": "significantly decreased"}, {"measurement": "t1/2, effect of concomitant kolanut", "setting": "[2]", "result": "no significant effect"}, {"measurement": "tmax, effect of concomitant kolanut", "setting": "[2]", "result": "no significant effect"}, {"measurement": "decrease of proportional formation of desbutyl metabolite", "setting": "[3]; [8]", "result": 2.4, "unit": "fold"}]}, {"smiles": "Oc1cccc2ccccc12", "note": "[α-naphthol]", "values": [{"measurement": "ICHI (isocratic chromatographic hydrophobicity index)", "setting": "[4]", "result": "0.52-0.54"}]}, {"smiles": "CCCCN(CCCC)CCC(O)c1cc2c(Cl)cc(Cl)cc2c2cc(C(F)(F)F)ccc12", "note": "(stereo not drawn) [halofantrine]", "values": [{"measurement": "Solubility interaction quotient (Qsi), fold more lipophilic than caffeine", "setting": "[4]; LOD, halofantrine versus caffeine", "result": 24, "unit": "fold"}, {"measurement": "Qsi", "setting": "[4]; LOD, ketoconazole and halofantrine", "result": 1.42}, {"measurement": "increase of oral bioavailability", "setting": "[1]; administered postprandially", "result": 12, "unit": "fold"}, {"measurement": "plasma Hfm/Hf AUC (0-72 h) ratio", "setting": "[5]; fasted oral administration of Hf with ketoconazole", "result": "less than 0.05"}, {"measurement": "plasma Hfm/Hf AUC (0-72 h) ratio", "setting": "[5]; fasted oral administration of Hf without ketoconazole", "result": 0.56}, {"measurement": "Cmax, effect of concomitant kolanut", "setting": "[2]", "result": "significantly decreased"}, {"measurement": "t1/2, effect of concomitant kolanut", "setting": "[2]", "result": "no significant effect"}, {"measurement": "tmax, effect of concomitant kolanut", "setting": "[2]", "result": "no significant effect"}, {"measurement": "increase of oral bioavailability", "setting": "[3]; administered postprandially", "result": 3, "unit": "fold"}, {"measurement": "Solubility interaction quotient (Qsi), fold more lipophilic than caffeine", "setting": "[6]; ODS, halofantrine versus caffeine", "result": 2, "unit": "fold"}]}, {"smiles": "CC(=O)N1CCN(c2ccc(OCC3COC(Cn4ccnc4)(c4ccc(Cl)cc4Cl)O3)cc2)CC1", "note": "(stereo not drawn) [ketoconazole]", "values": [{"measurement": "Lipophilicity classification based on ICHI", "setting": "[4]", "result": "amphiphilic"}, {"measurement": "ICHI, mean value", "setting": "[4]; LOD, mean over 0.1N HCl and phosphate buffer pH 6.8 mobile phases", "result": 0.70}, {"measurement": "critical point ('critical micellar concentration') of ketoconazole for halofantrine solubility", "setting": "[7]", "result": 0.015, "unit": "%"}, {"measurement": "Lipophilicity classification based on ICHI", "setting": "[6]", "result": "lipophilic"}, {"measurement": "ICHI, mean value", "setting": "[6]; ODS, mean over 0.1N HCl and phosphate buffer pH 6.8 mobile phases", "result": 0.86}]}, {"smiles": "Oc1ccc2ccccc2c1", "note": "[β-naphthol]", "values": [{"measurement": "ICHI (isocratic chromatographic hydrophobicity index)", "setting": "[4]", "result": "0.46-0.48"}]}, {"smiles": "COc1ccc2cc(CCC(C)=O)ccc2c1", "note": "[nabumetone]", "values": [{"measurement": "ICHI (isocratic chromatographic hydrophobicity index)", "setting": "[4]", "result": "0.61-0.63"}]}, {"smiles": "O=C(O)c1cn(C2CC2)c2cc(N3CCNCC3)c(F)cc2c1=O", "note": "[ciprofloxacin hydrochloride]", "values": [{"measurement": "Qsi", "setting": "[4]; LOD, combination with model Garcinia bioflavonoid", "result": "about 10"}]}]}
